Data published in article PMC5249140, “Delineating Substrate Diversity of Disparate Short-Chain Dehydrogenase Reductase from Debaryomyces hansenii” (PLoS ONE, 2017).

B1: DHK (SDR from Debaryomyces hansenii) (Debaryomyces hansenii CBS767) (protein)
chain: MTRTVFVSGASGFIAQNIVKLLIEKGYNVIGTVRTAEKGENLKKCLASEKFTYEIVPDISVEGAFDKVLEKHSEINVLLHTASPFFYDTTDPENDLVLPAINGTKNILKAVKQYGAQIERVVITSSDAAIYSADDEQNSDLSFNESNWNSISYEDAIKDPIAAYYGAKTFAEKAAWDFVKENNSNFKLTAVNPVYVFGPQAFASEVKGKLNTSNELINTLIKLGPSDLFDNDKGGFIDVRDVAKAHVMAFESEDTINKRLYLTNGHFSTQMMLDIVNKNFPELKGKIPIGNPGTGSQDISTLAKMSNDATRQILNFDFNSLEKVVADTVAQILDARKRTL
notes: full-length codon-optimised synthetic gene in pET28a, N-terminal His6 tag kept, E. coli BL21(DE3), ~39 kDa, monomer

Columns and labels:
[1] = biological target: T1, DHK (SDR from Debaryomyces hansenii) (Debaryomyces hansenii, UniProt Q6BTD7); test: differential scanning fluorimetry, SYPRO orange; type: binding; conditions: 50 μM ligand, 2.5 μM enzyme; apo Tm 28.04°C
T1 construct: gene DEHA2D01496g; full-length codon-optimised synthetic gene in pET28a, N-terminal His6 tag kept, E. coli BL21(DE3), ~39 kDa, monomer

[2] = biological target: T2, FabG (β-keto ACP reductase) (Synechococcus elongatus, UniProt Q31QF3); test: differential scanning fluorimetry, SYPRO orange; type: binding; conditions: 2.5 μM enzyme; apo Tm 58°C, with NADPH 65°C
T2 construct: gene Synpcc7942_0684; codon-optimised synthetic gene in pET28a, N-terminal His6 tag, E. coli BL21(DE3), ~29 kDa
T2 sequence (Q31QF3 entry or part of it): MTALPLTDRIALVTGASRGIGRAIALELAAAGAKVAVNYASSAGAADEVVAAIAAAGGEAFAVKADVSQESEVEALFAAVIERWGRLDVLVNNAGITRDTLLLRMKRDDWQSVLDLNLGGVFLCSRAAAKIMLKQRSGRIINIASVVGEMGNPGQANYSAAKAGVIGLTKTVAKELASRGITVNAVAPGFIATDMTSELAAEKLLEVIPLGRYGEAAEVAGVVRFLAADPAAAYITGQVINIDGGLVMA

purified protein [3] = substrate: NC(=O)C1=CN([C@@H]2O[C@H](COP(=O)(O)OP(=O)(O)OC[C@H]3O[C@@H](n4cnc5c(N)ncnc54)[C@H](OP(=O)(O)O)[C@@H]3O)[C@@H](O)[C@H]2O)C=CC1; test: purified protein; type: biochemical, Debaryomyces hansenii; conditions: 2 mM ethyl 4-chloro acetoacetate, 100 mM sodium phosphate, 100 mM NaCl, pH 7.4, 25°C, varied: cofactor
purified protein [4] = substrate: CCOC(=O)CC(=O)CCl; test: purified protein; type: biochemical, Debaryomyces hansenii; conditions: 300 μM NADPH, 100 mM sodium phosphate, 100 mM NaCl, pH 7.4, 25°C

Molecule	ΔTm [1] [°C]	Tm shift [2] [°C]	Km (purified protein [3]) [µM]	Km (purified protein [4]) [µM]
NC(=O)C1=CN([C@@H]2O[C@H](COP(=O)(O)OP(=O)(O)OC[C@H]3O[C@@H](n4cnc5c(N)ncnc54)[C@H](O)[C@@H]3O)[C@@H](O)[C@H]2O)C=CC1 [NADH]	1.82			
NC(=O)C1=CN([C@@H]2O[C@H](COP(=O)(O)OP(=O)(O)OC[C@H]3O[C@@H](n4cnc5c(N)ncnc54)[C@H](OP(=O)(O)O)[C@@H]3O)[C@@H](O)[C@H]2O)C=CC1 [NADPH]	6.05	7		
B1			51.09	616.1
